In brackets after ≈: the same amount, converted by molar mass. Values belong to the compound of their own block, whether it stands above or below them.
Tests used:
Experiment in all cases: ≥ marks a high value that may be exact or a test limit, other limits are often not marked, values filed in µg/mL are converted to µM
[1] = system: Escherichia coli 55B5
[2] = system: Salmonella typhimurium
[3] = system: Pseudomonas aeruginosa
[4] = system: Escherichia coli UB1005
[5] = system: Staphylococcus aureus
[6] = system: Candida glabrata
[7] = system: Candida albicans IHEM 8060
[8] = system: Vibrio harveyi
[9] = system: Staphylococcus aureus BCRC 10780
[10] = system: Listeria monocytogenes BCRC 14845
[11] = system: Yersinia enterocolitica BCRC 13999
[12] = system: Staphylococcus xylosus BCRC 12930
[13] = system: Streptococcus equinus BCRC 14729
[14] = system: Vibrio alginolyticus BCRC 12829
[15] = system: Vibrio alginolyticus
[16] = system: Escherichia coli
[17] = system: Escherichia coli BCRC 10675
[18] = system: Vibrio parahaemolyticus
[19] = system: Vibrio anguillarum serotype O1
[20] = system: Klebsiella oxytoca BCRC 13985
[21] = system: Vibrio parahaemolyticus BCRC 10806
[22] = system: Pseudomonas aeruginosa BCRC 10944
[23] = system: Lactococcus garvieae
[24] = system: Staphylococcus aureus BCRC 10781
[25] = system: Streptococcus iniae
[26] = system: Klebsiella aerogenes BCRC 10370
[27] = system: Enterobacter cloacae BCRC 10401
[28] = system: Pseudomonas aeruginosa PAO1
[29] = system: Bacillus cereus C737
[30] = system: Leuconostoc lactis
[31] = system: Staphylococcus epidermidis
[32] = system: Micrococcus luteus
[33] = system: Listeria innocua
[34] = system: Pasteurella multocida
[35] = system: Streptococcus uberis
[36] = system: Bacillus cereus
[37] = system: Streptococcus sanguinis NY101
[38] = system: Pseudomonas aeruginosa PAK
[39] = system: Streptococcus mutans UA159
[40] = system: Streptococcus mitis ATCC 903
[41] = system: Streptococcus gordonii Challis DL1
[42] = system: Lacticaseibacillus casei ATCC 4646
[43] = system: Veillonella atypica PK1910

MIC [1]: 2 µM (≈ 4.99 µg/mL)
MIC [2]: 6 µM (≈ 15 µg/mL)
MIC [3]: 4.5 µM (≈ 11.2 µg/mL)
MIC [4]: 2.5 µM (≈ 6.23 µg/mL)
MIC [5]: 25 µM (≈ 62.3 µg/mL)
Compound: CC[C@H](C)[C@H](NC(=O)[C@H](C)N)C(=O)N[C@@H](Cc1cnc[nH]1)C(=O)N[C@@H](CCCCN)C(=O)N[C@@H](CC(C)C)C(=O)N[C@@H](C)C(=O)N[C@@H](Cc1cnc[nH]1)C(=O)N[C@@H](CCCCN)C(=O)N[C@@H](CC(C)C)C(=O)N[C@@H](CC(C)C)C(=O)N[C@@H](CCCCN)C(=O)N[C@@H](CCCCN)C(=O)N[C@@H](CC(C)C)C(=O)N[C@@H](CC(C)C)C(=O)N[C@@H](CCCCN)C(=O)N[C@@H](C)C(=O)N[C@H](C(=O)N[C@@H](CCCCN)C(=O)N[C@@H](CCCCN)C(=O)N[C@@H](CC(C)C)C(=O)N[C@@H](C)C(=O)N[C@@H](CCCCN)C(=O)O)C(C)C [AIHKLAHKLLKKLLKAVKKLAK]

MIC [6]: 17.6 µM (≈ 63.9 µg/mL)
MIC [7]: 17.6 µM (≈ 63.9 µg/mL)
Compound: CC[C@H](C)[C@@H]1NC(=O)[C@@H](N)CSSC[C@@H]2NC(=O)[C@@H]3CSSC[C@@H](C(=O)N[C@@H](CCCN=C(N)N)C(=O)O)NC(=O)[C@H](Cc4ccc(O)cc4)NC(=O)CNC(=O)[C@H](C)NC(=O)[C@H](C(C)C)NC(=O)[C@H](Cc4c[nH]c5ccccc45)NC(=O)CNC(=O)[C@@H]4CCCN4C(=O)[C@H](CCC(=O)O)NC(=O)[C@H](CCCCN)NC(=O)[C@H](Cc4cnc[nH]4)NC(=O)[C@H](CSSC[C@H](NC(=O)CNC(=O)[C@H](CC(N)=O)NC(=O)[C@H](CCCN=C(N)N)NC(=O)[C@H](CC(N)=O)NC(=O)[C@H](C)NC1=O)C(=O)N[C@@H](CCC(N)=O)C(=O)N1CCC[C@H]1C(=O)N[C@@H](CC(=O)O)C(=O)NCC(=O)N[C@@H](CO)C(=O)N[C@@H](CCC(N)=O)C(=O)NCC(=O)N[C@@H](CC(N)=O)C(=O)N3)NC(=O)[C@H](Cc1ccc(O)cc1)NC(=O)CNC(=O)[C@H](CO)NC2=O [CIANRNGCQPDGSQGNCCSGYCHKEPGWVAGYCR]

MIC [8]: 3.55 µM (≈ 8 µg/mL)
MIC [9]: 7.09 µM (≈ 16 µg/mL)
MIC [10]: 3.55 µM (≈ 8 µg/mL)
MIC [11]: 28.4 µM (≈ 64 µg/mL)
MIC [12]: 3.55 µM (≈ 8 µg/mL)
MIC [13]: ≥ 56.7 µM
MIC [14]: 28.4 µM (≈ 64 µg/mL)
MIC [15]: 3.55 µM (≈ 8 µg/mL)
MIC [16]: 14.2 µM (≈ 32 µg/mL)
MIC [17]: 7.09 µM (≈ 16 µg/mL)
MIC [19]: 3.55 µM (≈ 8 µg/mL)
MIC [20]: 14.2 µM (≈ 32 µg/mL)
MIC [22]: 7.09 µM (≈ 16 µg/mL)
MIC [23]: ≥ 56.7 µM
MIC [24]: 7.09 µM (≈ 16 µg/mL)
MIC [25]: ≥ 56.7 µM
MIC [26]: 3.55 µM (≈ 8 µg/mL)
MIC [27]: 3.55 µM (≈ 8 µg/mL)
Compound: CC[C@H](C)[C@H](NC(=O)[C@H](Cc1ccccc1)NC(=O)[C@H](CCCCN)NC(=O)[C@H](CCCCN)NC(=O)[C@H](C)NC(=O)[C@@H](NC(=O)[C@@H](NC(=O)[C@H](C)NC(=O)[C@H](Cc1ccccc1)NC(=O)[C@H](CCCCN)NC(=O)[C@H](CCCCN)NC(=O)[C@H](C)NC(=O)[C@H](C)NC(=O)[C@H](CC(N)=O)NC(=O)[C@H](C)NC(=O)CN)[C@@H](C)O)[C@@H](C)CC)C(=O)N[C@@H](CC(N)=O)C(=O)N[C@@H](Cc1ccc(O)cc1)C(=O)N[C@@H](CC(C)C)C(=O)N[C@@H](Cc1c[nH]c2ccccc12)C(=O)O [GANAAKKFATIAKKFINYLW]
MIC [18]: 1.77 µM (≈ 4 µg/mL)
MIC [21]: 28.4 µM (≈ 64 µg/mL)

MIC [28]: > 79.2 µM
MIC [29]: ≥ 79.2 µM
MIC [4]: ≥ 79.2 µM
Compound: CC[C@H](C)[C@H](NC(=O)[C@H](C)NC(=O)CNC(=O)[C@@H](NC(=O)[C@@H](NC(=O)[C@H](CCCCN)NC(=O)[C@H](CCCCN)NC(=O)[C@@H](NC(=O)[C@@H](NC(=O)[C@H](CC(=O)O)NC(=O)[C@H](Cc1ccccc1)NC(=O)[C@H](CC(C)C)NC(=O)CN)[C@@H](C)CC)C(C)C)C(C)C)C(C)C)C(=O)NCC(=O)N[C@@H](CO)C(=O)N[C@@H](CC(C)C)C(=O)O [GLFDIVKKVVGAIGSL]

MIC [30]: 7.43 µM (≈ 12 µg/mL)
MIC [28]: > 79.2 µM
MIC [31]: 15.5 µM (≈ 25 µg/mL)
MIC [16]: > 61.9 µM
MIC [32]: 15.5 µM (≈ 25 µg/mL)
MIC [33]: 7.43 µM (≈ 12 µg/mL)
MIC [34]: ≥ 61.9 µM
MIC [35]: ≥ 61.9 µM
MIC [29]: ≥ 79.2 µM
MIC [4]: ≥ 39.6 µM
MIC [5]: 15.5 µM (≈ 25 µg/mL)
MIC [36]: ≥ 61.9 µM
Compound: CC[C@H](C)[C@H](NC(=O)[C@H](CC(=O)O)NC(=O)[C@H](Cc1ccccc1)NC(=O)[C@H](CC(C)C)NC(=O)CN)C(=O)N[C@H](C(=O)N[C@@H](CCCCN)C(=O)N[C@@H](CCCCN)C(=O)N[C@H](C(=O)N[C@H](C(=O)NCC(=O)N[C@@H](C)C(=O)N[C@@H](CC(C)C)C(=O)NCC(=O)N[C@@H](CO)C(=O)N[C@@H](CC(C)C)C(N)=O)C(C)C)C(C)C)C(C)C [GLFDIVKKVVGALGSL]

MIC [37]: 5.07 µM (≈ 16 µg/mL)
MIC [38]: 10.1 µM (≈ 32 µg/mL)
MIC [39]: 2.54 µM (≈ 8 µg/mL)
MIC [5]: 10.1 µM (≈ 32 µg/mL)
MIC [40]: 10.1 µM (≈ 32 µg/mL)
MIC [41]: 5.07 µM (≈ 16 µg/mL)
Compound: CC[C@H](C)[C@H](NC(=O)[C@H](Cc1ccccc1)NC(=O)CNC(=O)CNC(=O)[C@H](CO)NC(=O)[C@H](Cc1ccccc1)NC(=O)[C@H](CCC(N)=O)NC(=O)[C@H](CCCCN)NC(=O)[C@H](CC(C)C)NC(=O)[C@H](CC(C)C)NC(=O)[C@H](CCCCN)NC(=O)[C@H](CC(C)C)NC(=O)[C@H](CC(C)C)NC(=O)[C@H](CCC(N)=O)NC(=O)[C@H](CCCCN)NC(=O)[C@H](CC(C)C)NC(=O)[C@H](CC(C)C)NC(=O)[C@H](CCC(N)=O)NC(=O)[C@@H](N)CC(C)C)C(=O)N[C@@H](CCCCN)C(=O)N[C@@H](Cc1cnc[nH]1)C(=O)N[C@@H](Cc1ccccc1)C(=O)N[C@H](C(=O)N[C@@H](Cc1cnc[nH]1)C(=O)N[C@@H](CCCN=C(N)N)C(=O)N[C@@H](Cc1ccccc1)C(N)=O)[C@@H](C)CC [LQLLKQLLKLLKQFSGGFIKHFIHRF]

MIC [37]: 8.39 µM (≈ 16 µg/mL)
MIC [42]: 8.39 µM (≈ 16 µg/mL)
MIC [38]: 4.2 µM (≈ 8 µg/mL)
MIC [39]: 4.2 µM (≈ 8 µg/mL)
MIC [5]: 8.39 µM (≈ 16 µg/mL)
MIC [43]: 2.1 µM (≈ 4 µg/mL)
MIC [40]: 16.8 µM (≈ 32 µg/mL)
MIC [41]: 8.39 µM (≈ 16 µg/mL)
Compound: CC(C)C[C@H](NC(=O)[C@H](CC(C)C)NC(=O)[C@H](Cc1cnc[nH]1)NC(=O)[C@H](Cc1cnc[nH]1)NC(=O)[C@H](CC(C)C)NC(=O)[C@H](CCCCN)NC(=O)[C@H](CCCCN)NC(=O)[C@H](CC(C)C)NC(=O)[C@H](CC(C)C)NC(=O)[C@H](CCCN=C(N)N)NC(=O)[C@H](CCCN=C(N)N)NC(=O)[C@H](Cc1c[nH]c2ccccc12)NC(=O)[C@@H](N)CCCN=C(N)N)C(=O)N[C@@H](Cc1cnc[nH]1)C(N)=O [RWRRLLKKLHHLLH]
